Tests used:
[1] = target: T1, human progesterone receptor-B (Homo sapiens, UniProt P06401); assay: Progesterone receptor-B transactivation assay, antiprogestagenic activity (inhibition of luciferase transactivation induced by Org 2058); format: cell-based; conditions: in the presence of 1 nM (16α)-16-ethyl-21-hydroxy-19-norpregn-4-ene-3,20-dione (Org 2058); read-out: Anti-progestagenic activity EC50
T1 construct: expressed in transfected cells; host or cells: Chinese hamster ovary (CHO) cells, line CHO-PRB-pMMTV-LUC 1E2-A2
T1 sequence (P06401 1-933): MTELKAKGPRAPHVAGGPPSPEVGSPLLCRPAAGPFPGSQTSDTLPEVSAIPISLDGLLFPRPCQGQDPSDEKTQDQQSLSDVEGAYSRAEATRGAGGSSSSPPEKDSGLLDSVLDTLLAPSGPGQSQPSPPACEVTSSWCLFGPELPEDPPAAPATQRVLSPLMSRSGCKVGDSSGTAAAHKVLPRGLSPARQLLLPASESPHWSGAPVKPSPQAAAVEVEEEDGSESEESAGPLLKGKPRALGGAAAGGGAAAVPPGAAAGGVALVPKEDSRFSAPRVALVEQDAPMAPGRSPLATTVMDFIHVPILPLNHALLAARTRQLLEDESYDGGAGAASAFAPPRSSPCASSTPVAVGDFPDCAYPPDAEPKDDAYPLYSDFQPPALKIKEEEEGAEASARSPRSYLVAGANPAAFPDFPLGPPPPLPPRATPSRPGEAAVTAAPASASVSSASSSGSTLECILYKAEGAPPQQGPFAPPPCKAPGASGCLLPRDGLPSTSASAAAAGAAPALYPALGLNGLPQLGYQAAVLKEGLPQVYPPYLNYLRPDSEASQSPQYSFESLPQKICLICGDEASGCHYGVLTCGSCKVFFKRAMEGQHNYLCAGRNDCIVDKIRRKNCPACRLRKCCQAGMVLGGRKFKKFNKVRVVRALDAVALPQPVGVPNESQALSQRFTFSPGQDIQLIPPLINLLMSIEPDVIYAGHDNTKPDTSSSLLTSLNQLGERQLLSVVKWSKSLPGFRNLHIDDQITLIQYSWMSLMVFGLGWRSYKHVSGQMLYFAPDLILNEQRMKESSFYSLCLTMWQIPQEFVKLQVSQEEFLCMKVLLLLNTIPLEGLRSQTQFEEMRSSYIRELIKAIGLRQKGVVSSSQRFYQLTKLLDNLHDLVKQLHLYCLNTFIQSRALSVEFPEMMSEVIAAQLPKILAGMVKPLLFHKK
Protocol: (§1) The (anti-)progestagenic activity of a compound of the invention (EC 50 and intrinsic activity) was determined in an in vitro bioassay of Chinese hamster ovary (CHO) cells stably transfected with the human progesterone receptor-B expression plasmid and with a reporter plasmid in which the MMTV-promoter is linked to the luciferase reporter gene. […] The cells were cultured with charcoal-treated supplemented defined bovine calf serum from Hyclone (Utah, USA) in Dulbecco's Modified Eagles Medium/Nutrient Mixture F-12 (DMEM/HAM F12 in ratio 1:1) from Gibco (Paisley, UK).

[2] = target: T1, human progesterone receptor-B; assay: Progesterone receptor-B transactivation assay, progestagenic (agonist) activity, CHO-PRB-pMMTV-LUC 1E2-A2 cells; format: cell-based; conditions: CHO cells stably transfected with human progesterone receptor-B and MMTV-luciferase reporter; read-out: Progestagenic activity EC50
Protocol: as §1

Compound	EC50 [1] [nM]	EC50 [2] [nM]
O=C(N[C@H]1CCCN2c3cc(F)ccc3Oc3ccccc3[C@H]12)C(F)(F)F (relative stereo) [Example 5, trans-2,2,2-Trifluoro-N-(7-fluoro-2,3,4,14b-tetrahydro-1H-dibenzo[b,f]pyrido[1,2-d][1,4]oxazepin-1-yl)acetamide]	100 to 10000	100 to 10000
O=C(N[C@H]1CCCN2c3cc(Cl)ccc3Cc3ccccc3[C@H]12)C(F)(F)F (relative stereo) [Example 8, trans-N-(7-Chloro-1,2,3,4,10,14b-hexahydrodibenzo[c,f]pyrido[1,2-a]azepin-1-yl)-2,2,2-trifluoroacetamide]	10 to 100	< 10
CC(=O)N[C@H]1CCCN2c3cc(Cl)ccc3Oc3ccccc3[C@H]12 (relative stereo) [Example 10, trans-N-(7-Chloro-2,3,4,14b-tetrahydro-1H-dibenzo[b,f]pyrido[1,2-d][1,4]oxazepin1-yl)acetamide]	100 to 10000	100 to 10000
CC(=S)N[C@H]1CCCN2c3cc(Cl)ccc3Oc3ccccc3[C@H]12 (relative stereo) [Example 21]	100 to 10000	10 to 100
N=C(N[C@H]1CCCN2c3cc(Cl)ccc3Oc3ccccc3[C@H]12)C(F)(F)F (relative stereo) [Example 29, trans-N-(7-Chloro-2,3,4,14b-tetrahydro-1H-dibenzo[b,f]pyrido[1,2-d][1,4]oxazepin-1-yl)-2,2,2-trifluoroacetimidamide]	10 to 100	10 to 100
O=C(N[C@H]1CCCN2c3cc(Cl)c(Cl)cc3Oc3ccccc3[C@H]12)C(F)(F)F (relative stereo) [Example 38A, trans-N-(7,8-Dichloro-2,3,4,14b-tetrahydro-1H-dibenzo[b,f]pyrido[1,2-d][1,4]oxazepin-1-yl)-2,2,2-trifluoroacetamide]	100 to 10000	10 to 100
O=C(N[C@H]1CCCN2c3cc(Cl)c(Br)cc3Oc3ccccc3[C@H]12)C(F)(F)F (relative stereo) [Example 39, trans-N-(8-Bromo-7-chloro-2,3,4,14b-tetrahydro-1H-dibenzo[b,f]pyrido[1,2-d][1,4]oxazepin-1-yl)-2,2,2-trifluoroacetamide]	100 to 10000	100 to 10000
COCCN[C@H]1CCCN2c3cc(Cl)ccc3Oc3ccccc3[C@H]12 (relative stereo) [Example 48, trans-7-Chloro-2,3,4,14b-tetrahydro-N-(2-methoxyethyl)-1H-dibenzo[b,f]pyrido[1,2-d][1,4]oxazepine-1-amine]	10 to 100	100 to 10000
CC(C)(C)OC(=O)CN[C@H]1CCCN2c3cc(Cl)ccc3Sc3ccccc3[C@H]12 (relative stereo) [Example 49, 1,1-Dimetylethyl trans-2-[(7-chloro-2,3,4,14b-tetrahydro-1H-dibenzo[b,f]pyrido[1,2-d][1,4]thiazepin-1-yl)amino]acetate]	10 to 100	100 to 10000
O=C(NC1CCCN2c3cc(Cl)ccc3Oc3ccccc3C12)C(F)F (stereo not drawn) [13 (1S14bR isomer)]	< 10	< 10
